Source: ChEMBL document CHEMBL1131961, “Protein kinase C modulators bearing dicarba-CLOSO-dodecaborane as a hydrophobic pharmacophore” (Bioorg Med Chem Lett, 1999)

Tests used:
HL-60 = experiment: Inhibition of HL-60 monocyte cell proliferation; type: functional; conditions: Homo sapiens, read-out: ED50 (the source's name)
[1] = target: Protein kinase C delta type (Homo sapiens, UniProt Q05655); experiment: Displacement of [3H]-PDBu from human recombinant Protein kinase C delta
Chain of Protein kinase C delta type (Q05655 whole entry): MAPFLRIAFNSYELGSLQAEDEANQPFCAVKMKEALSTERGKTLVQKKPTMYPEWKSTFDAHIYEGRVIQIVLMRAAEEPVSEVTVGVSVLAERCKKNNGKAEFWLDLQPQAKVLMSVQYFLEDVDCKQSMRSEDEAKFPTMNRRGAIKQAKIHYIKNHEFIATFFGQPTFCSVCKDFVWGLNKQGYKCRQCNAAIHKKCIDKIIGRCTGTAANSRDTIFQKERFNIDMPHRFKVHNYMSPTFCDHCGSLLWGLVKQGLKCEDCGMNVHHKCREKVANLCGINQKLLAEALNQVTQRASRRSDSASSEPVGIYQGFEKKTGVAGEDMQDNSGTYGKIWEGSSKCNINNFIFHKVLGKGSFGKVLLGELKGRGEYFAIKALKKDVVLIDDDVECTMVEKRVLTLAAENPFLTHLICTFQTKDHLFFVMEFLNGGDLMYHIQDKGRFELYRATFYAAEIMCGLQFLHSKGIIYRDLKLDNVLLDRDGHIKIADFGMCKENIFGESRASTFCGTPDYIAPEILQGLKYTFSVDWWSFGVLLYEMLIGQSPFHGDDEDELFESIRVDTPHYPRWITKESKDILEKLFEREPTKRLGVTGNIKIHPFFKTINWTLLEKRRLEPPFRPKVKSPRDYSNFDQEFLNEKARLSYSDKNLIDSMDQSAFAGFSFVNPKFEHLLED

## CCCCCCCCCCc1ccc2c(c1)N(C)[C@@H](C(C)C)C(=O)N[C@H](CO)C2
HL-60
  EC50: 5 nM
[1]
  Ki: 1.8 nM
